Data set [1] concerns Haemophilus influenzae. Kind of data set: Antibacterial activity against Haemophilus influenzae HIN 19-15 assessed as inhibition of bacterial growth incubated for 20 to 24 hrs by CLSI based broth microdilution method. Format: functional. The note with it: time 20-24 hrs.
The test system of data set [2] is Streptococcus pneumoniae. The data set is described as follows: Antibacterial activity against erythromycin-resistant Streptococcus pneumoniae SPN19-14 assessed as inhibition of visible bacterial growth incubated for 18 hrs by broth microdilution method. Format: functional. Background: In broth dilution the organism is exposed to a series of concentrations in liquid medium.

Data set [3] relates to Haemophilus influenzae. Kind of data set: Antibacterial activity against Haemophilus influenzae HIN 19-18 assessed as inhibition of bacterial growth incubated for 20 to 24 hrs by CLSI based broth microdilution method. The class given is functional. The note with it: HIN 19-18, time 20-24 hrs.
Data set [4] deals with Moraxella catarrhalis. Kind of data set: Antibacterial activity against Moraxella catarrhalis BCA 19-6 assessed as inhibition of bacterial growth incubated for 24 hrs by CLSI based broth microdilution method. Format: functional. The note with it: Moraxella catarrhalis, BCA 19-6, 24 h, read-out: MIC.
The subject of data set [5] is Streptococcus agalactiae. The data set is described as follows: Antibacterial activity against erythromycin-resistant Streptococcus agalactiae 19-8 assessed as inhibition of visible bacterial growth incubated for 18 hrs by broth microdilution method. The class given is functional.
Data set [6] concerns Staphylococcus epidermidis. The data set is described as follows: Antibacterial activity against erythromycin-resistant Staphylococcus epidermidis 19-4 assessed as inhibition of visible bacterial growth incubated for 18 hrs by broth microdilution method. The class given is functional.
In data set [7] the test system is Staphylococcus epidermidis. The data set is described as follows: Antibacterial activity against erythromycin-resistant Staphylococcus epidermidis 19-11 assessed as inhibition of visible bacterial growth incubated for 18 hrs by broth microdilution method. Format: functional.
Data set [8] has as its system Staphylococcus epidermidis. Kind of data set: Antibacterial activity against erythromycin-resistant Staphylococcus epidermidis 19-8 assessed as inhibition of visible bacterial growth incubated for 18 hrs by broth microdilution method. Format: functional.
The next data set has as its system Streptococcus pyogenes. The data set is described as follows: Antibacterial activity against erythromycin-resistant Streptococcus pyogenes ATCC 19615 assessed as inhibition of visible bacterial growth incubated for 18 hrs by broth microdilution method. The class given is functional.
Data set [9] concerns Streptococcus pneumoniae. Kind of data set: Antibacterial activity against erythromycin-resistant Streptococcus pneumoniae SPN19-13 assessed as inhibition of visible bacterial growth incubated for 18 hrs by broth microdilution method. Format: functional.
Data set [10] has as its system Streptococcus pneumoniae. The data set is described as follows: Antibacterial activity against erythromycin-resistant Streptococcus pneumoniae SPN19-8 assessed as inhibition of visible bacterial growth incubated for 18 hrs by broth microdilution method. The class given is functional.
Data set [11] relates to Moraxella catarrhalis. Kind of data set: Antibacterial activity against Moraxella catarrhalis BCA 19-5 assessed as inhibition of bacterial growth incubated for 24 hrs by CLSI based broth microdilution method. Format: functional. The note with it: Moraxella catarrhalis, BCA 19-5, 24 h, read-out: MIC.
Data set [12] has as its system Moraxella catarrhalis. The data set is described as follows: Antibacterial activity against Moraxella catarrhalis BCA 19-31 assessed as inhibition of bacterial growth incubated for 24 hrs by CLSI based broth microdilution method. The class given is functional. The note with it: BCA 19-31, 24 h.
Data set [13] concerns Staphylococcus epidermidis. The data set is described as follows: Antibacterial activity against erythromycin-resistant Staphylococcus epidermidis 19-9 assessed as inhibition of visible bacterial growth incubated for 18 hrs by broth microdilution method. The class given is functional.
The subject of data set [14] is Staphylococcus epidermidis. Kind of data set: Antibacterial activity against erythromycin-resistant Staphylococcus epidermidis 19-5 assessed as inhibition of visible bacterial growth incubated for 18 hrs by broth microdilution method. Format: functional.
In data set [15] the test system is Streptococcus agalactiae. Kind of data set: Antibacterial activity against erythromycin-resistant Streptococcus agalactiae 19-9 assessed as inhibition of visible bacterial growth incubated for 18 hrs by broth microdilution method. The class given is functional.
The subject of data set [16] is Staphylococcus epidermidis. Kind of data set: Antibacterial activity against erythromycin-resistant Staphylococcus epidermidis 19-6 assessed as inhibition of visible bacterial growth incubated for 18 hrs by broth microdilution method. Format: functional.
The nature of data set [17]: Cytotoxicity against mouse AML12 cells assessed as reduction in cell viability incubated for 48 hrs by MTT assay. The class given is toxicity, cell-based.
Another data set has as its system Escherichia coli. Kind of data set: Antibacterial activity against Escherichia coli ATCC 35218 assessed as inhibition of visible bacterial growth. Format: functional, organism-based.

Molecules are shown by their SMILES. Values after ≈ are worked out from the molar mass of the structure shown. Active and inactive are the calls of the source. No cut-off for these calls is given here.

A word on the CC50: it is the concentration that lowers cell viability or growth by half. For `CC[C@H]1OC(=O)[C@@](C)(F)C(=O)[C@H](C)[C@@H](O[C@@H]2O[C@H](C)C[C@H](N(C)C)[C@H]2O)[C@](C)(OC)C[C@@H](C)C(=O)[C@H](C)[C@H]2N(CCCOC(=O)Nc3cccnc3)C(=O)O[C@]12C`, the MIC was 4 µg/mL (≈ 4.94 µM) in the data set with Haemophilus influenzae [1]; 0.125 µg/mL (≈ 0.155 µM) in the data set with Streptococcus pneumoniae [2]; 4 µg/mL (≈ 4.94 µM) with Haemophilus influenzae [3]; 0.06 µg/mL (≈ 0.0742 µM) in the data set with Moraxella catarrhalis [4]; under 0.03 µg/mL with Streptococcus agalactiae [5]; 0.25 µg/mL (≈ 0.309 µM) in [6]. For the same compound, the MIC in data set [7] was 0.125 µg/mL (≈ 0.155 µM); in data set [8] it was 0.125 µg/mL (≈ 0.155 µM); in the data set on Streptococcus pyogenes it was under 0.03 µg/mL; in the data set with Streptococcus pneumoniae [9], 0.125 µg/mL (≈ 0.155 µM); in the data set on Streptococcus pneumoniae [10] it was 0.125 µg/mL (≈ 0.155 µM); with Moraxella catarrhalis [11], 0.06 µg/mL (≈ 0.0742 µM). The MIC turned out to be 0.06 µg/mL (≈ 0.0742 µM) with Moraxella catarrhalis [12]; 0.5 µg/mL (≈ 0.618 µM) in [13]; 0.125 µg/mL (≈ 0.155 µM) in [14]; 0.25 µg/mL (≈ 0.309 µM) in the data set on Streptococcus agalactiae [15]; 125 µg/mL (≈ 155 µM) in data set [16]. Moreover, the 50% cytotoxic concentration (CC50) at 48 h in data set [17] is over 100 µM. In addition, the outcome with Escherichia coli was Active.
Regarding `CC[C@H]1OC(=O)[C@@](C)(F)C(=O)[C@H](C)[C@@H](O[C@@H]2O[C@H](C)C[C@H](N(C)C)[C@H]2O)[C@](C)(OC)C[C@@H](C)C(=O)[C@H](C)[C@H]2N(CCCOC(=O)Nc3ccccc3[N+](=O)[O-])C(=O)O[C@]12C`, the MIC with Haemophilus influenzae [1] is 8 µg/mL (≈ 9.38 µM); in the data set on Streptococcus pneumoniae [2], 0.25 µg/mL (≈ 0.293 µM); with Haemophilus influenzae [3] it was 8 µg/mL (≈ 9.38 µM); with Moraxella catarrhalis [4], 0.5 µg/mL (≈ 0.586 µM); with Streptococcus agalactiae [5], under 0.03 µg/mL; in [6], 0.125 µg/mL (≈ 0.147 µM). Besides, the MIC is 0.125 µg/mL (≈ 0.147 µM) in data set [7]; 0.125 µg/mL (≈ 0.147 µM) in data set [8]; under 0.03 µg/mL with Streptococcus pyogenes; 0.25 µg/mL (≈ 0.293 µM) with Streptococcus pneumoniae [9]; 1 µg/mL (≈ 1.17 µM) in the data set with Streptococcus pneumoniae [10]; 0.5 µg/mL (≈ 0.586 µM) in the data set with Moraxella catarrhalis [11]. Also, the MIC stood at 0.125 µg/mL (≈ 0.147 µM) in the data set with Moraxella catarrhalis [12]; 0.25 µg/mL (≈ 0.293 µM) in [13]; 0.125 µg/mL (≈ 0.147 µM) in data set [14]; 4 µg/mL (≈ 4.69 µM) in the data set on Streptococcus agalactiae [15]; 0.125 µg/mL (≈ 0.147 µM) in data set [16]. In addition, the CC50 at 48 h in [17] worked out at 27.4 µM. Also, the outcome in the data set with Escherichia coli was Active.

Source of the values: ChEMBL document CHEMBL5543097, “Synthesis and structure-activity relationships of novel 14-membered 2-fluoro ketolides with structural modification at the C11 position” (Eur J Med Chem, 2024).
